Assay results as given in patent US4978663A, “5-(1-aminocyclohexyl)-2(1H)-pyridinone compounds which have pharmaceutical utility” (priority 1989, dated 1990).

Legend:
[1] = Dark Avoidance Assay (reversal of scopolamine induced memory deficit); assay type: in vivo; settings: mice, s.c., retest after 24 hours
Protocol: In this assay mice are tested for their ability to remember an unpleasant stimulus for a period of 24 hours. A mouse is placed in a chamber that contains a dark compartment; a strong incadescent light drives it to the dark compartment, where an electric shock is administered through metal plates on the floor. The animal is removed from the testing apparatus and tested again, 24 hours later, for the ability to remember the electric shock.
If scopolamine, an anticholinergic that is known to cause memory impairment, is administered before an animal's initial exposure to the test chamber, the animal re-enters the dark compartment shortly after being placed in the test chamber 24 hours later.

[2] = 2-phenyl-1,4-benzoquinone-induced writhing test in mice (PQW), analgesic activity; assay type: in vivo

## CC(=O)NC1(c2ccc(=O)n(C)c2)CCCCC1 [N-[1-(1,6-Dihydro-1-methyl-6-oxo-3-pyridinyl)cyclohexyl]acetamide]
[1]; 0.63 mg/kg
  % of animals with scopolamine induced memory deficit reversal: 33%

## CC(=O)NC1(c2ccc(=O)[nH]c2)CCCCC1 [N-[1-(1,6-Dihydro-6-oxo-3-pyridinyl)cyclohexyl]acetamide]
[2]
  Analgesic PQW, % Inhibition of Writhing at 20 mg/kg., s.c.: 58%

## CCC(=O)O[C@](Cc1ccccc1)(c1ccccc1)[C@H](C)CN(C)C [Propoxyphene, reference compound]
[2]; 3.9 mg/kg, s.c.
  Analgesic PQW, % Inhibition of Writhing: 50%

## NC1(c2ccc(=O)n(CC#CCN3CCCC3)c2)CCCCC1 [5-(1-Aminocyclohexyl)-1-[4-(pyrrolidin-1-yl)-2-butynyl]-2(1H)-pyridinone]
[2]
  Analgesic PQW, % Inhibition of Writhing at 20 mg/kg., s.c.: 53%

## CC1(C)CCC(N)(c2ccc(=O)[nH]c2)CC1.Cl [5-(1-Amino-4,4-dimethylcyclohexyl)-2(1H)-pyridinone hydrochloride]
[1]; 2.5 mg/kg
  % of animals with scopolamine induced memory deficit reversal: 20%
[2]
  Analgesic PQW, % Inhibition of Writhing at 20 mg/kg., s.c.: 62%

## Cl.NC1(c2ccc(=O)n(Cc3ccccc3)c2)CCCCC1 [5-(1-Aminocyclohexyl)-1-(phenylmethyl)-2(1H)-pyridinone hydrochloride]
[1]; 0.16 mg/kg
  % of animals with scopolamine induced memory deficit reversal: 20%
[2]
  Analgesic PQW, % Inhibition of Writhing at 20 mg/kg., s.c.: 42%

## CC(=O)NC1(c2ccc(=O)n(C)c2)CCC(C(C)(C)C)CC1 (stereo not drawn) [cis-N-[1-(1,6-Dihydro-1-methyl-6-oxo-3-pyridinyl)-4-(1,1-dimethylethyl)cyclohexyl]acetamide]
[1]; 1.3 mg/kg
  % of animals with scopolamine induced memory deficit reversal: 33%
[2]
  Analgesic PQW, % Inhibition of Writhing at 20 mg/kg., s.c.: 47%

## O=C(CN1CCC(C(=O)c2ccc(F)cc2)CC1)NC1(c2ccc(=O)[nH]c2)CCCCC1 [N-[1-(1,6-Dihydro-6-oxo-3-pyridinyl)cyclohexyl][4-(4-fluorobenzoyl)]-1-piperidineacetamide]
[2]
  Analgesic PQW, % Inhibition of Writhing at 20 mg/kg., s.c.: 77%

## O=C(NC1(c2ccc(=O)[nH]c2)CCCCC1)c1ccccc1 [N-[1-(1,6-Dihydro-6-oxo-3-pyridinyl)cyclohexyl]benzamide]
[2]
  Analgesic PQW, % Inhibition of Writhing at 20 mg/kg., s.c.: 72%

## CNC(=O)Oc1ccc2c(c1)[C@]1(C)CCN(C)[C@@H]1N2C [Physostigmine, reference compound]
[1]; 0.31 mg/kg
  % of animals with scopolamine induced memory deficit reversal: 20%
